Measurements reported in US7728105B2, “Peptides impairing PBX dependent gene regulation” (St. George's Hospital Medical School, priority 2002, dated 2010).
No end group written: not given here.

Legend:
AC133+ cells = test: Short-term ex-vivo AC133+ cell expansion culture with HXP peptide, trypan blue cell count; format: cell-based, human; settings: HXP peptide withdrawn at 7 days, Hox B4 protein 20 μg/ml added
Description: Umbilical Cord Blood (UCB) specimens were collected from full-term deliveries scheduled for elective caesarian sections following hospital ethical regulations.
Samples were diluted 1 in 4 in PBS supplemented with a citrate-based anti-coagulant (0.6% ACD-A, Baxter, France) and Bovine Serum Albumin (0.5% fraction V, Sigma Aldrich, UK) at pH=7.4 and referenced as “ACD-A buffer”. Diluted UCB was carefully overlaid in a 1:4 ratio onto a research grade Ficoll-Paque solution (d:1.077 g/cm^3, Pharmacia Biotech, Sweden) prior to Centrifugation (400 g, 30 minutes, 22° C.). The mononuclear cells (MNC) layer was extracted, washed twice in ACD-A Buffer, pelleted (400 g, 10 minutes) before resuspending in ACD-A buffer and cell aliquots taken for cell viability/enumeration using trypan blue (Sigma Aldrich).
AC133+ cells were obtained from MNC after immunomagnetic separation using the AC133 mini-MACS selection kit (Miltenyi Biotec, Germany): labelling volume 500 μl/10^8 cells in ACD-A buffer containing Fc Receptor-blocking reagent (100 μl, 5 min incubation, 4° C.) before adding colloidal super-paramagnetic MACS MicroBeads conjugated to monoclonal mouse anti-human AC133/1 antibody (100 μl IgG1 isotype, 25 min incubation, 4° C.). Cells were then washed (5 ml ACD-A buffer, 400 g, 10 min, 4° C.) before resuspended cells in 500 μl ACD-A buffer were applied to a chilled MACS positive selection column (MS+/RS+) on a magnet. The column was rinsed with cool ACD-A buffer (4×500 μl) and the AC133− cell population retained at 4° C. After magnet removal AC133+ cells were eluted with 1 ml of cold ACD-A buffer. The AC133+ cell fraction was reapplied to a new column, prior to cell enumeration and viability assays.
AC133+ cells were seeded in duplicate in liquid culture system at 2-4×10^4 cells/ml. […] Cultured cells were then counted at various time points using trypan blue exclusion method described above.

[1] = system: PBX1, 2 and 3 association with HOX proteins; test: Cross-linking and Western blot of PBX proteins in KG1a cells (Example 2); format: cell-based, human; settings: 24 hours, 1 μM peptide, EDC cross-linking
Description: HXP and control peptides were as described in Example 1. KG1a cells were grown as described in Example 1. KG1a cells were cultured for 24 hours without treatment, or in the presence of 1 μM HXP peptide or control peptide. The cells were harvested and lysed. One aliquot of the cells was subject to cross-linking. Frozen cells were lysed using standard techniques and […] of lysate was incubated for 30 minutes at room temperature in 4 mM 1-ethyl-3-[3-(dimethyl-amino)propyl]carbodimide (EDC), 4 mM sulpho-NHS, 20 mM HEPES (pH 7.5), 5 mM MgCl2, and 0.03% (w/v) […] to cross-link non-covalently associated proteins. The reaction was stopped by the addition of ammonium acetate to a final concentration of 50 mM. The other aliquot was frozen without cross-linking.
Proteins were extracted from the cells of both aliquots by standard techniques and separated by gel electrophoresis. The gels were probed by Western blot with an antibody raised against PBX1, 2 and 3 (sc-888, Santa Cruz Inc. USA) or an anti-beta actin antibody (sc-1615, Santa Cruz Inc. USA).

malignant cell lines = test: Proliferation of malignant cell lines over seven days in culture; format: cell-based, human; set-up: effect of increased dose on proliferation of malignant cell lines: dose or concentration left out as unconfirmed; settings: ten fold increase in dose
Description: A number of cell lines representing different malignancies were grown in culture for seven days, and HXP peptide or the control peptide CXP were added to a final concentration of 20 μg/ml on day 3. The bars represent the fold increase of each cell line over the seven days; the empty, dashed bars indicate the CXP peptide treated cells, whilst the solid bars indicate the addition of HXP peptide. Error bars represent the standard error the mean, and n is the number of experiments performed. The cell lines used were: AML—KG1a; Bladder—HT; Breast—SKBR3; Cervical—HeLa; Colon—Colo41; Gastric—MKN-45; Large cell lung cancer—MES; Melanoma—DX3; Ovarian—1847; Pancreatic—Panc-Tu1; Prostate—LNCAP; Renal—HT1376; Small cell lung cancer—NCI-h510A. The change in the expression of the HOX genes expressed by each cell line was assessed by RT-PCR on RNA extracted from the cells at the end of seven days. ‘HOX gene inactivated’ means that the level of expression of each of the listed HOX genes was at least five fold lower in the HXP peptide treated cells compared to the control. *Analysis not yet complete.
A number of cell lines representing different malignancies were grown in culture for seven days, and HXP peptide or the control peptide CXP were added to a final concentration of 200 μg/ml on day 3. The bars represent the fold increase of each cell line over the seven days; the empty, dashed bars indicate the CXP peptide treated cells, whilst the solid bars indicate the addition of HXP peptide. Error bars represent the standard error the mean, and n is the number of experiments performed. The cell lines used were: Bladder—HT; Cervical—HeLa; Melenoma—DX3; Pancreatic—Panc-Tu1.
Solid tumour cell lines (Cancer Research UK) were seeded at 4×10^4 cells/ml, in a liquid culture system made of appropriate medium (see table, Sigma-Aldrich, UK) supplemented with 10% FCS (Sigma Aldrich) and penstrep (1% Sigma). All cell lines were grown with HXP peptide (as in Example 3, 20 μg/ml or 200 μg/ml) or control peptide CXP (20 μg/ml or 200 μg/ml).
KG1a, KG1, HL60 and U937 cell lines (EACC, UK) were seeded at 5×10^4 cells/ml, in a liquid culture system made of RPMI-1640 medium (Life Technologies, UK) supplemented with 10% FCS (Sigma Aldrich) and gentamicin (50 μg/ml Life Technologies) in triplicates. All cell lines were grown with HXP peptide peptide (20 μg/ml) or control peptide (20 μg/ml).
Cell lines were cultured for various time points at 37° C., 5% CO2 in humidified atmosphere and enumerated at various time points.

PBX/HOX dimers = test: Western blotting of PBX and PBX/HOX dimers in CD133+ cells (Example 3); format: cell-based, human; settings: 20 μg/ml, EDC cross-linking
Description: CD133+ cells (another name for AC133+ cells) were seeded in duplicate at 4×10^4 cells/ml in IMDM (Life Technologies), 10% FCS (Sigma Aldrich) and gentamycin (50 μg/ml Life Technologies) and Thrombopoietin (TPO) 10 ng/ml, Flt3-Ligand (FL) 50 ng/ml & c-KitL (K) 20 ng/ml), all obtained from R and D systems Ltd., UK. (Forraz et al., 2002). The HXP peptide (N-term: WYPWMKKHHRQIKIWFQNRRMKWKK: C-term; Eurogentec, Belgium) and control CXP peptide (N-term: WCCLADRHGRQIKIWFQNRRMKWKK: C-term; Eurogentec, Belgium) were added to culture medium at a concentration of 20 μg/ml. To withdraw peptides from culture, cells were washed twice in IMDM or RPMI and reseeded at prewash cell densities. Primary cells were cultured for 3 weeks at 37° C., 5% CO2 in humidified atmosphere and enumerated by a […] exclusion method with a heamocytometer.
Protein was extracted from HXP-treated or CXP-treated CD133+ cells (20 μg/ml). C-20 antibody that recognises all three human PBX gene proteins (sc-888, Santa Cruz Biotechnology Inc., USA; Monica et al., 1991). Protein cross linking was performed with 2 mM 1-ethyl-3-[3-(dimethylamino)propyl]carbodiimide (EDC) (Pierce Biotechnology, USA), in cell lysates diluted 1:10 in conjugation buffer (0.1M 2-[N-morpholino]ethane sulphonic acid, pH 5). […]

[2] = Stability in human serum at 37° C., denaturing PAGE and silver stain
Description: 30 μg of HXP(10) or HXP peptide were incubated in 50 μl of human serum at 37° C. for the times shown. Samples were run on a denaturing PAGE and silver stained.

[3] = comparison with other peptide based pharmaceuticals; cited from earlier work

HOX B4: recombinant full length Xenopus laevis sequence
AC133+ cell proliferation after HXP peptide withdrawal and co-stimulation with HOX B4 (AC133+ cells): reverted to near control levels

WAPWEDDHHRQIKIWFQNRRMKWKK (Control Peptide) [reference compound]
association of PBX proteins with other proteins (HOX proteins) [1]: associated with-other proteins | effect of increased dose on proliferation of malignant cell lines (malignant cell lines): no significant affect on proliferation

WCCLADRHGRQIKIWFQNRRMKWKK (WCCLADRHGRQIKIWFQNRRMKWKK) [CXP, reference compound]
binding of PBX to other proteins / formation of PBX/HOX dimers (PBX/HOX dimers): not

WYPWMKKHHR [HXP4(10), WYPWMKKHHR]
half-life [2]: ~4 h

low molecular weight heparin
serum half life [3]: thirty
